Patent US10858307B2, “Compositions and methods for treating liver cancer” (Golden Biotechnology Corporation, priority 2016, dated 2020)
≈ marks a conversion by molar mass, not a printed value.

Assays:
[1] = system: Human hepatoma cell lines (HepG2); assay: MTT cell viability assay; format: cell-based; settings: for IC50: Homo sapiens, HepG2 cells, 48 h exposure; for inhibition against liver cancer cells compared to Compound S: versus Compound S
From the text: The MTT (3-(4, 5-dimethylthiazol-2-yl)-2,5-diphenyl tetrazolium bromide) cell viability assay is a colorimetric assay system, which measures the reduction of a tetrazolium component (MTT) into an insoluble blue/purple colored formazan product by succinate tetrazolium reductase in mitochondria of viable cells. The absorbance of the complex is read spectrophotometrically and is directly proportional to the number of live or viable cells. Formazan formation can therefore be used to assess and determine the survival rate of cells.
Human hepatoma cell lines (HepG2) were obtained from American Type Culture Collection (Rockville, Md., USA) and cultured in Minimum Essential Medium Alpha (Invitrogen/Gibco BRL, Grand Island, N.Y., USA) at 37° C. in 5% CO2 in culture media supplemented with 10% fetal bovine serum (FBS) (Invitrogen/Gibco BRL) and 100 U/ml streptomycin and penicillin (Invitrogen/Gibco BRL).
100 μL of HepG2 cells (1×10^4 cells per well) were seeded in 96 well plates and pre-incubated. After 24 h, the cells were exposed to various concentrations of Compounds 1-11, and the known compound 4-hydroxy-2,3-dimethoxy-6-methyl-5-(3,7,11-trimethyldodeca-2,6,10-trienyl)cyclohex-2-enone (Compound S) in a volume of 200 μL for 48 h. 20 μL of MTT reagent (5 mg/mL) was added to each well and then incubated in 5% CO2 at 37° C. for 4 h. The media was replaced with 200 μL of DMSO to dissolve the MTT tetrazolium crystal. Absorbance was measured at 570 nm using a microplate reader.

Human HCC Mahlavu cells = assay: Efficacy test on liver cancer xenograft model; format: in vivo, nude mice
Description: […] nude mice (National Laboratory Animal Center) of four to six weeks old were used and maintained in laminar flow cabinets under pathogen-free condition. Human HCC Mahlavu cells (1×10^6 cells) carrying luciferase gene were re-suspended in 20 μL of PBS containing 50% matrigel (BD Biosciences, MA) and injected into the left lateral liver lobe of athymic nude mice (National Laboratory Animal Center) with 27-gauge needle by sterile techniques (Lu et al., 2007). For bioluminescence imaging, the animals were injected with the luciferase substrate D-luciferin at a dose of 150 mg/kg in 0.2 mL sterile isotonic saline.
Tumor growth and metastatic status was monitored using the Xenogen […] (IVIS) imaging system every two weeks. All images were obtained after intraperitoneal injection of luciferin (100 mg/kg body weight; Synchem, Elk Grove Village, Ill., United States). […] Image analysis and bioluminescence quantification were performed using Living Image software (Caliper Life Sciences, Hopkinton, Mass., United States). […] The body weight was measured twice weekly.
The tumor-bearing mice were treated with vehicle (olive oil) or Compound 1 at 120 mg/kg by oral gavage twice per day and 5 days per week for 4 weeks. The tumor volume was measured twice weekly. ***P<0.005 compared to vehicle control. […]

IC50 [1] | Compound | inhibition against liver cancer cells compared to Compound S [1] | tumor size (Human HCC Mahlavu cells; 120 mg/kg oral gavage twice per day, 5 days per week for 4 weeks, P<0.005 compared to vehicle control) | decrease of tumor mass compared with control (Human HCC Mahlavu cells; 120 mg/kg oral gavage, at the end of week 12)
2.29 µg/mL (≈ 4.41 µM) | COC1=C(NCCc2c[nH]c3ccccc23)[C@@H](O)[C@@H](C/C=C(\C)CC/C=C(\C)CCC=C(C)C)[C@H](C)C1=O [Compound 11] |  |  | 
2.4 µg/mL (≈ 6.14 µM) | COC1=C(OC)C(O)C(CC=C(C)CCC=C(C)CCC=C(C)C)C(C)C1=O (stereo not shown) [Compound S, 4-hydroxy-2,3-dimethoxy-6-methyl-5-(3,7,11-trimethyldodeca-2,6,10-trienyl)cyclohex-2-enone, reference compound] |  |  | 
0.91 µg/mL (≈ 1.93 µM) | COC1=C(NCc2cccs2)[C@@H](O)[C@@H](C/C=C(\C)CC/C=C(\C)CCC=C(C)C)[C@H](C)C1=O [Compound 10] | much better unexpected inhibition |  | 

Continued, molecule first:

Compound | IC50 [1] | inhibition against liver cancer cells compared to Compound S [1] | tumor size (Human HCC Mahlavu cells; 120 mg/kg oral gavage twice per day, 5 days per week for 4 weeks, P<0.005 compared to vehicle control) | decrease of tumor mass compared with control (Human HCC Mahlavu cells; 120 mg/kg oral gavage, at the end of week 12)
COC1=C(NCCO)[C@@H](O)[C@@H](C/C=C(\C)CC/C=C(\C)CCC=C(C)C)[C@H](C)C1=O [Compound 7] | 1.95 µg/mL (≈ 4.65 µM) |  |  | 
COC1=C(N)[C@@H](O)[C@@H](C/C=C(\C)CC/C=C(\C)CCC=C(C)C)[C@H](C)C1=O [Compound 1, (4S,5S,6S)-3-amino-4-hydroxy-2-methoxy-6-methyl-5-((2E,6E)-3,7,11-trimethyldodeca-2,6,10-trien-1-yl)cyclohex-2-enone] | 0.13 µg/mL (≈ 0.346 µM) | much better unexpected inhibition | decrease of the tumor size | at least 4 folds
COC1=C(N(C)C)[C@@H](O)[C@@H](C/C=C(\C)CC/C=C(\C)CCC=C(C)C)[C@H](C)C1=O [Compound 4] | 0.18 µg/mL (≈ 0.446 µM) | much better unexpected inhibition |  | 
COC1=C(NCCCN)[C@@H](O)[C@@H](C/C=C(\C)CC/C=C(\C)CCC=C(C)C)[C@H](C)C1=O [Compound 5] | 0.87 µg/mL (≈ 2.01 µM) | much better unexpected inhibition |  | 
